In patent US20060252813A1, “Apparatus for curing a composite laminate” (priority 2002, published 2006):
Where a SMILES comes first, the peptide text is derived from it. [ ]: non-standard residue; d: D form. Phe(3-CN) = N#Cc1cccc(C[CH](N)C(=O)O)c1; Phe(2-CN) = N#Cc1ccccc1C[CH](N)C(=O)O; 1Nal = N[CH](Cc1cccc2ccccc12)C(=O)O

Experiments:
hPin1 = hPin1 (Homo sapiens, UniProt Q13526); assay: protease-coupled PPIase assay, hPin1; format: biochemical; details: 6 nM hPin1; substrate Ac-Ala-Ala-Ser(PO3H2)-Pro-Arg-pNA, trypsin; 35 mM HEPES pH 7.8, 6° C; read-out: Target T-1 (hPin1), IC50 class
hFKBP12 = hFKBP12 (Homo sapiens, UniProt P62942); assay: protease-coupled PPIase assay, hFKBP12; format: biochemical; details: 20 nM hFKBP12; substrate Suc-Ala-Phe-Pro-Phe-pNA, α-chymotrypsin; 35 mM HEPES pH 7.8, 6° C; read-out: Target T-2 (hFKBP12), IC50 class
hCyp18 = hCyp18 (Homo sapiens, UniProt P62937); assay: protease-coupled PPIase assay, hCyp18; format: biochemical; details: 10 nM hCyp18; substrate Suc-Ala-Phe-Pro-Phe-pNA, α-chymotrypsin; 35 mM HEPES pH 7.8, 6° C; read-out: Target T-3 (hCyp18), IC50 class
LpCyp18 = LpCyp18 (Legionella pneumophila, UniProt Q5ZRZ4); assay: biochemical
EcParvulin = EcParvulin (Escherichia coli, UniProt P0A9L5); assay: protease-coupled PPIase assay, EcParvulin; format: biochemical; details: 20 nM EcParvulin; substrate Suc-Ala-Phe-Pro-Phe-pNA, α-chymotrypsin; 35 mM HEPES pH 7.8, 6° C; read-out: Target T-5 (EcParv), IC50 class
Sequence of EcParvulin (P0A9L5 whole entry): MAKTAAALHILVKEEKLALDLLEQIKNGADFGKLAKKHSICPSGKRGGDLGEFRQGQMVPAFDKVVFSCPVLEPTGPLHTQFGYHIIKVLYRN

Sequence of hFKBP12 (P62942 whole entry): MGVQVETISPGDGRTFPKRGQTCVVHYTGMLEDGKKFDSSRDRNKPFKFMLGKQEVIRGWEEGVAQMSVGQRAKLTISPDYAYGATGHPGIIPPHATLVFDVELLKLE
Sequence of hCyp18 (P62937 whole entry): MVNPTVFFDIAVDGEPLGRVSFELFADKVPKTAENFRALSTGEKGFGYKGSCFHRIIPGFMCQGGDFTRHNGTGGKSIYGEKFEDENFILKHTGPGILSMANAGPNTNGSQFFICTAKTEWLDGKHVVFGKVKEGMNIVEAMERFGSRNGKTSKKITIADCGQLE
Sequence of hPin1 (Q13526 whole entry): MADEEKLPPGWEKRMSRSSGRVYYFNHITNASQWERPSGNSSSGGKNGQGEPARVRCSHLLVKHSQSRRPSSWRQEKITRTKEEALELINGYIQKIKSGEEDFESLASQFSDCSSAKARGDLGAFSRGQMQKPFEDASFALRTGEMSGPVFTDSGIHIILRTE
Sequence of LpCyp18 (Q5ZRZ4 1-164): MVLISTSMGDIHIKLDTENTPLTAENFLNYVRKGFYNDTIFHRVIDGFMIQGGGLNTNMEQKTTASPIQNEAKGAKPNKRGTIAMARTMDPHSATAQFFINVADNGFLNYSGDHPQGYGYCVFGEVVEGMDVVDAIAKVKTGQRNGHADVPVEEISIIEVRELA

Structure (SMILES)	IC50 (hPin1)	IC50 (hFKBP12)	IC50 (hCyp18)	IC50 (LpCyp18)	IC50 (EcParvulin)
CCNC(=S)NC(Cc1ccc2ccccc2c1)C(=O)NCCC#N (stereo not drawn) [Compound 1]	< 5 µM	> 100 µM	> 100 µM	> 100 µM	–
N#CCCNC(=O)[C@H](Cc1csc2ccccc12)NC(=S)Nc1ccc(SC(F)(F)F)cc1 [Compound 2]	5 to 10 µM	> 100 µM	> 100 µM	> 100 µM	–
N#CCCNS(=O)(=O)Cc1ccccc1 [Compound 3]	5 to 10 µM	> 100 µM	> 100 µM	> 100 µM	–
CCc1ccc(NC(=S)NCCC#N)cc1 [Compound 5]	< 5 µM	> 100 µM	> 100 µM	> 100 µM	–
CC(C)CC(NC(=O)C1CCCN1CC#N)C(N)=O (stereo not drawn) [Compound 6]	5 to 10 µM	> 100 µM	> 100 µM	> 100 µM	–
CN(C)c1ccc(N=Nc2ccc(S(=O)(=O)NCCC#N)cc2)cc1 [Compound 7]	5 to 10 µM	> 100 µM	> 100 µM	> 100 µM	–
CC(=O)NC(Cc1cccc2ccccc12)C(=O)NC(Cc1ccccc1C#N)C(N)=O (stereo not drawn) [Compound 8] (Ac-[1Nal]-[Phe(2-CN)]-NH2; configuration not given here)	< 5 µM	> 100 µM	> 100 µM	> 100 µM	–
CC(=O)NC(Cc1cccc2ccccc12)C(=O)NC(Cc1cccc(C#N)c1)C(N)=O (stereo not drawn) [Compound 9] (Ac-[1Nal]-[Phe(3-CN)]-NH2; configuration not given here)	5 to 10 µM	> 100 µM	> 100 µM	> 100 µM	5 to 10 µM
